Test system: haemoglobin
Test: Ability of complexes to bind to haemoglobin (elution profile of 59Fe label on PD-10 column)
Format: binding
Conditions: 59Fe-labelled 3:1 neutral complex, 1 mM
Procedure: The ability of the complexes of 1-acetyl-3-hydroxypyrid-2-one and 1-ethyl-3-hydroxy-6-hydroxymethylpyrid-4-one to bind to haemoglobin is investigated by studying the elution profile of a ^59 Fe label when a mixture of haemoglobin and the ^59 Fe-labelled 3:1 (pyridone:iron) neutral complex (at 1 mM concentration) is applied to a PD-10 column (Sephadex […] gel permeation column - Pharmacia).

Compound | haemoglobin binding ability
CC(=O)n1cccc([O-])c1=O.CC(=O)n1cccc([O-])c1=O.CC(=O)n1cccc([O-])c1=O.[Fe+3] [Fe^III complex of 1-acetyl-3-hydroxypyrid-2-one] | no detectable haemoglobin binding ability
CCn1cc([O-])c(=O)cc1CO.CCn1cc([O-])c(=O)cc1CO.CCn1cc([O-])c(=O)cc1CO.[Fe+3] [Fe^III complex of 1-ethyl-3-hydroxy-6-hydroxymethylpyrid-4-one] | no detectable haemoglobin binding ability

Test system: apotransferrin
Test: Ability of iron complexes to donate iron to apotransferrin
Format: biochemical
Conditions: apotransferrin 10^-4 M, complex 10^-4 M, tris 50 mM pH 7.4, 37° C., 10 minutes
Procedure: Apotransferrin (10^-4 M) and the iron complex of 1-ethyl-3-hydroxy-6-hydroxymethylpyrid-4-one (10^-4 M; prepared as described in Example 1) were incubated together in tris hydrochloride (50 mM, buffered to pH 7.4) at 37° C. for 10 minutes when a 1 ml aliquot was removed from the medium and added to a PD10 column. 0.5 ml fractions were collected directly into scintillation vials for counting. […] A similar value was obtained with the complex of 3-hydroxy-1-(2'-hydroxyethyl)-2-methylpyrid-4-one but with the complex of 1-acetyl-3-hydroxypyrid-2-one over 80% of the iron was removed within 10 minutes.

Compound | iron removed from the iron complex
CC(=O)n1cccc([O-])c1=O.CC(=O)n1cccc([O-])c1=O.CC(=O)n1cccc([O-])c1=O.[Fe+3] [Fe^III complex of 1-acetyl-3-hydroxypyrid-2-one] | over 80%
CCn1cc([O-])c(=O)cc1CO.CCn1cc([O-])c(=O)cc1CO.CCn1cc([O-])c(=O)cc1CO.[Fe+3] [Fe^III complex of 1-ethyl-3-hydroxy-6-hydroxymethylpyrid-4-one] | over 45%

Test system: inverted rat jejunal sac
Test: In vitro permeation of rat jejunal sac by iron complexes (iron uptake into serosal space)
Conditions: relative to ferric chloride as 1; Krebs Ringer buffer, 37° C., up to 1 hour
Text: Rats (male Sprague Dawley, 60 g) were killed and the jejunum removed, everted and cut into three segments (4 cm length). […] The contents of the sac were counted for ^59 Fe and measured spectrophotometrically.

Compound | Relative Iron Uptake
[Cl][Fe]([Cl])[Cl] [FeCl3, ferric chloride] | 1
O=C([O-])[C@H](O)[C@@H](O)[C@H](O)[C@H](O)CO.O=C([O-])[C@H](O)[C@@H](O)[C@H](O)[C@H](O)CO.[Fe+2] [Fe^II gluconate] | 1.6

Test system: not given
Test: not given
Conditions: n-octanol/tris buffer, 100 µM, pH 7.4

Partition coefficient KOUT, free compound | Compound
0.03 | 3-hydroxy-5-hydroxymethyl-1-methylpyrid-4-one

Test system: human erythrocytes
Test: not given
Conditions: pH 7.4

Amount of complex entering erythrocytes | Compound
40 n.mole | Cc1c([O-])c(=O)ccn1CCCCO.Cc1c([O-])c(=O)ccn1CCCCO.Cc1c([O-])c(=O)ccn1CCCCO.[Fe+3] [Fe^III complex of 3-hydroxy-1-(4'-hydroxybutyl)-2-methylpyrid-4-one]
< 5 n.mole | Cc1c([O-])c(=O)ccn1CCO.Cc1c([O-])c(=O)ccn1CCO.Cc1c([O-])c(=O)ccn1CCO.[Fe+3] [Fe^III complex of 3-hydroxy-1-(2'-hydroxyethyl)-2-methylpyrid-4-one]
< 5 n.mole | Cc1c([O-])c(=O)ccn1CCN.Cc1c([O-])c(=O)ccn1CCN.Cc1c([O-])c(=O)ccn1CCN.[Fe+3] [Fe^III complex of 1-(2'-aminoethyl)-3-hydroxy-2-methylpyrid-4-one]
240 n.mole | CC(=O)n1cccc([O-])c1=O.CC(=O)n1cccc([O-])c1=O.CC(=O)n1cccc([O-])c1=O.[Fe+3] [Fe^III complex of 1-acetyl-3-hydroxypyrid-2-one]
26 n.mole | CCn1cc([O-])c(=O)cc1CO.CCn1cc([O-])c(=O)cc1CO.CCn1cc([O-])c(=O)cc1CO.[Fe+3] [Fe^III complex of 1-ethyl-3-hydroxy-6-hydroxymethylpyrid-4-one]
< 5 n.mole | Cn1cc([O-])c(=O)cc1CO.Cn1cc([O-])c(=O)cc1CO.Cn1cc([O-])c(=O)cc1CO.[Fe+3] [Fe^III complex of 3-hydroxy-6-hydroxymethyl-1-methylpyrid-4-one]
30 n.mole | Cc1c([O-])c(=O)ccn1CCCO.Cc1c([O-])c(=O)ccn1CCCO.Cc1c([O-])c(=O)ccn1CCCO.[Fe+3] [Fe^III complex of 3-hydroxy-1-(3'-hydroxypropyl)-2-methylpyrid-4-one]
105 n.mole | CCCCNC(=O)Cn1cccc([O-])c1=O.CCCCNC(=O)Cn1cccc([O-])c1=O.CCCCNC(=O)Cn1cccc([O-])c1=O.[Fe+3] [Fe^III complex of 1-(N-butylcarbamoylmethyl)-3-hydroxypyrid-2-one]
230 n.mole | COC(=O)Cn1cccc([O-])c1=O.COC(=O)Cn1cccc([O-])c1=O.COC(=O)Cn1cccc([O-])c1=O.[Fe+3] [Fe^III complex of 3-hydroxy-1-methoxycarbonylmethylpyrid-2-one]
< 5 n.mole | Fe^III complex of 1-carboxymethyl-3-hydroxy-2-methylpyrid-4-one
< 5 n.mole | O=C(O)Cn1cccc([O-])c1=O.O=C(O)Cn1cccc([O-])c1=O.O=C(O)Cn1cccc([O-])c1=O.[Fe+3] [Fe^III complex of 1-carboxymethyl-3-hydroxypyrid-2-one]
25 n.mole | COC(=O)CCn1ccc(=O)c([O-])c1C.COC(=O)CCn1ccc(=O)c([O-])c1C.COC(=O)CCn1ccc(=O)c([O-])c1C.[Fe+3] [Fe^III complex of 3-hydroxy-1-(2'-methoxycarbonylethyl)-2-methylpyrid-4-one]
10 n.mole | CCOC(=O)Cn1cccc([O-])c1=O.CCOC(=O)Cn1cccc([O-])c1=O.CCOC(=O)Cn1cccc([O-])c1=O.[Fe+3] [Fe^III complex of 1-ethoxycarbonylmethyl-3-hydroxypyrid-2-one]
52 n.mole | CC(C)NC(=O)Cn1cccc([O-])c1=O.CC(C)NC(=O)Cn1cccc([O-])c1=O.CC(C)NC(=O)Cn1cccc([O-])c1=O.[Fe+3] [Fe^III complex of 3-hydroxy-1-[N-(2'-methylethyl)-carbamoylmethyl]-pyrid-2-one]
44 n.mole | Cc1c([O-])c(=O)ccn1CCCCCO.Cc1c([O-])c(=O)ccn1CCCCCO.Cc1c([O-])c(=O)ccn1CCCCCO.[Fe+3] [Fe^III complex of 3-hydroxy-1-(5'-hydroxypentyl)-2-methylpyrid-4-one]
19 n.mole | Cc1c([O-])c(=O)ccn1CCC(=O)O.Cc1c([O-])c(=O)ccn1CCC(=O)O.Cc1c([O-])c(=O)ccn1CCC(=O)O.[Fe+3] [Fe^III complex of 1-(2'-carboxyethyl)-3-hydroxy-2-methylpyrid-4-one]

Test system: not listed separately
Test: physchem
Conditions: n-octanol/tris buffer, pH 7.4
Procedure: (§1) The partition coefficient Kpart, being the ratio (concentration of compound in n-octanol)/(concentration of compound in aqueous phase) on partition between n-octanol and aqueous tris hydrochloride (20 mM, pH 7.4; tris represents 2-amino-2-hydroxymethylpropane 1,3-diol), is measured at 20° C. for the 3:1 iron(III) complexes of each of the compounds listed in Table 1 and also for the iron-free compound (at 10^-4 M) by spectrophotometry. The solutions of the complexes are either produced by dissolving the pre-formed complex in the aqueous tris hydrochloride or are prepared in situ in the buffer by the admixture of a 3:1 molar ratio of the pyridone and ferric chloride, the pH thereafter being readjusted to 7.4 if necessary (the same product will be obtained in the buffer solution irrespective of whether the pyridone used is in a salt form or not). Acid washed glassware is used throughout and, following mixing of 5 ml of the 10^-4 M aqueous solution with 5 ml of n-octanol for 1 minute, the aqueous n-octanol mixture is centrifuged at 1,000 g for 30 seconds. The two resulting phases are separated for a concentration determination by spectrophotometry on each. For the free hydroxypyridones, the range 220-340 nm is used for concentration determinations whilst for the iron complexes the range 340-640 nm is used.

logD at 100 µM | Compound
-0.699 | COC(=O)Cn1cccc(O)c1=O [3-hydroxy-1-methoxycarbonylmethylpyrid-2-one]
-0.26 | CC(=O)n1cccc(O)c1=O [1-acetyl-3-hydroxypyrid-2-one]
-0.347 | Cc1c(O)c(=O)ccn1CCC(=O)O [1-(2'-carboxyethyl)-3-hydroxy-2-methylpyrid-4-one]
-0.553 | Cc1c(O)c(=O)ccn1CCCCCO [3-hydroxy-1-(5'-hydroxypentyl)-2-methylpyrid-4-one]
-0.301 | CCOC(=O)Cn1cccc(O)c1=O [1-ethoxycarbonylmethyl-3-hydroxypyrid-2-one]
< -2.7 | Cc1c(O)c(=O)ccn1CC(=O)O [1-carboxymethyl-3-hydroxy-2-methylpyrid-4-one]
-1.22 | CCn1cc(O)c(=O)cc1CO [1-ethyl-3-hydroxy-6-hydroxymethylpyrid-4-one]
< -2.7 | Cc1c(O)c(=O)ccn1CCN [1-(2'-aminoethyl)-3-hydroxy-2-methylpyrid-4-one]

Compound | logD at 100 µM
CC(=O)OCCCCCn1ccc(=O)c(O)c1C [1-(5'-acetoxypentyl)-3-hydroxy-2-methylpyrid-4-one] | -0.347

Test system: not listed separately
Test: Partition coefficient between n-octanol and aqueous tris hydrochloride (20 mM, pH 7.4) at 20° C.
Conditions: free compound, 10^-4 M; n-octanol/tris hydrochloride 20 mM pH 7.4, 20° C.
Procedure: as §1

Partition coefficient KOUT, free compound | Compound
0.12 | CCNC(=O)Cn1cccc(O)c1=O [1-(N-ethylcarbamoylmethyl)-3-hydroxypyrid-2-one]
0.34 | CC(C)NC(=O)Cn1cccc(O)c1=O [3-hydroxy-1-[N-(2'-methylethyl)-carbamoylmethyl]-pyrid-2-one]
1.89 | CCCCNC(=O)Cn1cccc(O)c1=O [1-(N-butylcarbamoylmethyl)-3-hydroxypyrid-2-one]
0.35 | CCCNC(=O)Cn1cccc(O)c1=O [3-hydroxy-1-(N-propylcarbamoylmethyl)-pyrid-2-one]
0.06 | CNC(=O)Cn1cccc(O)c1=O [3-hydroxy-1-(N-methylcarbamoylmethyl)pyrid-2-one]

Same assay, conditions: n-octanol partition, in words

Kpart values (in words) | Compound
low Kpart values | Cc1c([O-])c(=O)ccn1CCN.Cc1c([O-])c(=O)ccn1CCN.Cc1c([O-])c(=O)ccn1CCN.[Fe+3] [Fe^III complex of 1-(2'-aminoethyl)-3-hydroxy-2-methylpyrid-4-one]
low Kpart values | Fe^III complex of 1-carboxymethyl-3-hydroxy-2-methylpyrid-4-one

Same assay, conditions: n-octanol/tris buffer, pH 7.4

logD at 100 µM | Compound
-0.854 | Cc1c(O)c(=O)ccn1CCCCO [3-hydroxy-1-(4'-hydroxybutyl)-2-methylpyrid-4-one]
< -2.7 | Cc1c(O)c(=O)ccn1CCO [3-hydroxy-1-(2'-hydroxyethyl)-2-methylpyrid-4-one]

Source: patent publication USRE36831E, “Iron-pyridone complexes for anemia” (priority 1983, dated 2000)
